Test systems include BT-549 breast; MCF7 breast; MDA-MB-231 breast; T-47D breast.
Holding throughout (test): NCI anticancer screen, dose series, 48 h

The text below walks through data of PubChem BioAssay (NCI).

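Cultured in 96-well plates, cells were exposed to test compound for 48 hours across five concentrations. GI50 = concentration required for 50% inhibition of growth. TGI marks complete inhibition of growth.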 Where a SMILES comes first, the peptide text is derived from it. [ ]: non-standard residue; d: D form. NMeY = CN[C@@H](Cc1ccc(O)cc1)C(=O)O; dNMeF = CN[C@H](Cc1ccccc1)C(=O)O; Sar = CNCC(=O)O

As to `Nc1nc(N)c2c(ccc3nccc32)[nH]1`, the GI50 was 3.06 µM with BT-549 breast, 2.26 µM in the experiment with MCF7 breast, 13.5 µM in the experiment on MDA-MB-231 breast and 14.9 µM in the experiment with T-47D breast. Besides, the TGI in the experiment with BT-549 breast is 24.1 µM; in the experiment on MCF7 breast, 15.5 µM; with MDA-MB-231 breast, 50 µM; in the experiment with T-47D breast, over 80 µM.
Take `Nc1c(C(=O)c2cccc(C#CCN3CCOCC3)c2)cnn1-c1ccc(F)cc1`: the GI50 with BT-549 breast was over 25 µM; in the experiment with MCF7 breast, 11.7 µM; in the experiment on MDA-MB-231 breast it was over 25 µM; in the experiment on T-47D breast it was 8.83 µM. Moreover, the TGI in the experiment on BT-549 breast, in the experiment with MCF7 breast, in the experiment on MDA-MB-231 breast and with T-47D breast was over 25 µM in each case.
As to `CO/N=C(/COc1c(-c2ccccc2)oc2ccccc2c1=O)c1ccc(OC)cc1`, the GI50 in the experiment on BT-549 breast was over 100 µM; in the experiment with MDA-MB-231 breast it was 31.3 µM; in the experiment with T-47D breast it was 26.9 µM. Besides, the TGI in the experiment on BT-549 breast, with MDA-MB-231 breast and with T-47D breast was over 100 µM in each case.
As to `CCCCCCCCCCCC[n+]1ccccc1`, the GI50 with BT-549 breast was 1.01 µM; with MCF7 breast, 1.25 µM; with MDA-MB-231 breast, 1.34 µM; in the experiment with T-47D breast, 0.936 µM. The TGI is 3.03 µM with BT-549 breast, 9.38 µM in the experiment with MCF7 breast, 3.4 µM in the experiment with MDA-MB-231 breast and 11.2 µM in the experiment with T-47D breast.
With `Cc1ncc(C(=O)Nc2ccc(CN3CCN(C)CC3)c(C(F)(F)F)c2)cc1C#Cc1cnc(N)c2ncccc12`, the GI50 with BT-549 breast is 1.65 µM; with MCF7 breast, 1.61 µM; in the experiment with MDA-MB-231 breast, 0.0801 µM; with T-47D breast, 5.36 µM. The TGI with BT-549 breast worked out at 18.9 µM; in the experiment on MCF7 breast, 4.36 µM; in the experiment with MDA-MB-231 breast, 1.18 µM; with T-47D breast, 27.4 µM.
Take `Cc1ccc2c(Nc3cccc(Cl)c3F)ncc(NC(=O)c3csc4c(N)ncnc34)c2c1`: the GI50 with BT-549 breast was over 100 µM; with MCF7 breast, over 100 µM; in the experiment with MDA-MB-231 breast, 0.164 µM; in the experiment on T-47D breast, over 100 µM. The TGI in the experiment with BT-549 breast was over 100 µM; in the experiment with MCF7 breast it was over 100 µM; with MDA-MB-231 breast, over 94 µM; in the experiment on T-47D breast it was over 100 µM.
As to `CN1CCN(Cc2ccc(NC(=O)c3nc4ccc5[nH]ncc5c4c4c3CCC4)cc2C(F)(F)F)CC1`, the GI50 in the experiment with BT-549 breast is 7.61 µM; with MCF7 breast, 0.906 µM; in the experiment on MDA-MB-231 breast, 0.924 µM; with T-47D breast it was 1.07 µM. Besides, the TGI with BT-549 breast is 14.9 µM; with MCF7 breast, 1.82 µM; in the experiment with MDA-MB-231 breast, 1.68 µM; in the experiment on T-47D breast, 2.84 µM.
As for `O=Cc1ccc(Oc2c3ccccc3nc3occc23)cc1`, the GI50 in the experiment on MCF7 breast was 13.8 µM; with T-47D breast it was 11.4 µM. Moreover, the TGI in the experiment on MCF7 breast worked out at 32.2 µM; in the experiment with MDA-MB-231 breast, 22.5 µM; with T-47D breast, 36.3 µM.
Turning to `CC[C@H](C)[C@H](NC(=O)Nc1ccccc1)C(=O)N(C)[C@H](C[C@@H](OC(C)=O)c1nc(C(=O)N[C@@H](Cc2ccccc2)C[C@H](C)C(=O)OC)cs1)C(C)C`, the results for the GI50 with BT-549 breast, in the experiment with MCF7 breast and with MDA-MB-231 breast were 3.09 µM, 1.27 µM and 3.36 µM, respectively. The TGI with BT-549 breast was 41.2 µM; in the experiment with MCF7 breast, over 100 µM; in the experiment on MDA-MB-231 breast, 22.1 µM.
`COc1cc2nc(N3CCCC3)nc(Nc3ccccc3)c2cc1OC`: the GI50 in the experiment on BT-549 breast was 1.69 µM; in the experiment with MCF7 breast it was 0.637 µM; in the experiment on MDA-MB-231 breast, 1.56 µM. Further, the results for the TGI in the experiment on BT-549 breast, with MCF7 breast and with MDA-MB-231 breast were 3.25 µM, 2.29 µM and 3.11 µM, respectively.
`Cc1ccc(N=Nc2c(N)nn(-c3ccccc3)c2N)cc1`: the GI50 in the experiment with BT-549 breast is 0.737 µM; in the experiment with MCF7 breast, 0.67 µM; with MDA-MB-231 breast, 7.41 µM; in the experiment with T-47D breast, 1.74 µM. In addition, the TGI in the experiment with BT-549 breast, with MCF7 breast, in the experiment on MDA-MB-231 breast and in the experiment with T-47D breast was over 100 µM in each case.
As for `C=CC(=O)N1CCC([C@@H]2CCNc3c(C(N)=O)c(-c4ccc(Oc5ccccc5)cc4)nn32)CC1`, the GI50 was 11.9 µM with BT-549 breast, 23.1 µM in the experiment on MCF7 breast, 18.4 µM in the experiment on MDA-MB-231 breast and 3.49 µM in the experiment with T-47D breast. Besides, the TGI in the experiment with BT-549 breast was 31 µM; in the experiment on MCF7 breast it was over 100 µM; in the experiment with MDA-MB-231 breast, 56.4 µM; in the experiment with T-47D breast, over 87.1 µM.
As for `O=C1c2cc3c(cc2[C@@H]2[C@H]1c1ccc([N+](=O)[O-])cc1C(=O)N2CCCCl)OCO3`, the GI50 is under 0.01 µM with MCF7 breast, under 0.0416 µM with MDA-MB-231 breast and over 100 µM with T-47D breast. Also, the figures for the TGI with MDA-MB-231 breast and in the experiment on T-47D breast were 2.38 µM and over 100 µM, respectively.
Turning to `O=C(NC(=S)NNC(=S)NNc1ccccc1)c1ccccc1`, the GI50 in the experiment on BT-549 breast is 11.3 µM; with MCF7 breast, 2.92 µM; in the experiment on MDA-MB-231 breast, 12.9 µM; in the experiment on T-47D breast, 3.24 µM. Besides, the TGI in the experiment with BT-549 breast, with MCF7 breast, with MDA-MB-231 breast and in the experiment with T-47D breast was over 100 µM throughout.
In the case of `CCOC(=O)Cn1c(C)c(/C=N/NC(=O)c2cc3c(ccc4ccccc43)o2)c2ccccc21`, the GI50 with BT-549 breast is 0.853 µM; in the experiment on MCF7 breast it was 0.31 µM; in the experiment with MDA-MB-231 breast it was 0.702 µM; in the experiment on T-47D breast it was 0.653 µM. Further, the TGI is 5.13 µM with BT-549 breast, 4.85 µM in the experiment on MCF7 breast, 3.33 µM in the experiment with MDA-MB-231 breast and over 27.8 µM with T-47D breast.
With `CC[C@H](C)[C@@H]1NC(=O)[C@H](Cc2ccc(O)cc2)N(C)C(=O)[C@H](Cc2ccccc2)NC(=O)CN(C)C(=O)[C@@H]2CCCN2C(=O)[C@@H](Cc2ccccc2)N(C)C(=O)[C@H](CC(C)C)NC1=O` (cyclo(F[NMeY]IL[dNMeF]P[Sar])), the GI50 is 0.407 µM in the experiment with BT-549 breast, 0.103 µM in the experiment with MCF7 breast, 0.331 µM with MDA-MB-231 breast and 0.157 µM with T-47D breast. The TGI in the experiment on BT-549 breast stood at 4.51 µM; in the experiment on MCF7 breast, 2.69 µM; in the experiment with MDA-MB-231 breast, 4.28 µM; with T-47D breast, 6.21 µM.
Take `COc1cccc(-n2ncc3c(N/N=C/c4ccc(S(C)(=O)=O)cc4)ncnc32)c1`: the GI50 with BT-549 breast was 13.5 µM; in the experiment on MCF7 breast, 9.87 µM; in the experiment on MDA-MB-231 breast, 9.09 µM; in the experiment on T-47D breast it was 7.4 µM. Further, the TGI in the experiment on BT-549 breast was over 25 µM; in the experiment on MCF7 breast, over 25 µM; in the experiment on MDA-MB-231 breast, over 24.1 µM; in the experiment with T-47D breast, over 21 µM.
